Measured values taken from patent EP4745139A1, “COMPOUND FOR TREATING AND PREVENTING RESPIRATORY SYNCYTIAL VIRUS INFECTION DISEASES” (CSPC Zhongqi Pharmaceutical Technology (Shijiazhuang) Co., …, priority 2023, dated 2025).

What follows are compounds tested on RSV strain A2 (assay: Antiviral detection test against RSV strain A2 based on ELISA method (Hep-2 cells)). Details: RSV A2 virus strain, Hep-2 cells, ELISA OD450.
Type: cell-based, Respiratory Syncytial Virus
Method: Test Example 1: Antiviral detection test of small molecules against RSV strain A2 based on ELISA method
• Source of cell line: Nanjing Kebai Biotechnology Co., Ltd. • Cell type: human laryngeal carcinoma epithelial cells Hep-2
• 96-well culture plate (Cat.No. 3610, Corning Costar); • Fetal bovine serum (Cat.No. 10099-141, GIBCO); • DMEM medium (Cat.No. 11995500BT, GIBCO); • Envision 2104 microplate reader.
• 1. Day 1: The Hep-2 cells were seeded into a 96-well plate at a density of 1×10^4 cells/well; • 2. Day 2: • A. Compound dilution: The compound in the first well was diluted to 9 µM, and 3-fold gradient dilution was performed, with a total of 10 gradients; • B. The Hep-2 cell plate prepared on Day 1 was taken out from the incubator, the supernatant was discarded, and 100 PFU/well/50 µL of the RSV A2 virus was added to each well. The plate was stood at 37°C in a 5% CO2 incubator for 2 hours, the supernatant was aspirated and discarded, and then 100 µL of the gradient-diluted compound or DMEM maintenance medium containing 2% FBS was added to each well; • 3. Day 5: • A. Add fixative: The gradient-diluted compound or medium was discarded from the wells, and 100 µL/well of fixative (4% paraformaldehyde) was added. The plate was stood at room temperature for 10 minutes, and then was washed once with 250 µL PBS; • B. 100 µL/well of a blocking solution was added, and the plate was incubated at 37°C in a 5% CO2 incubator for 30 minutes; • C. After incubation, the detection antibody (Anti RSV Fpro) was added at 0.3 µg/50 µL/well (6 µg/mL), and the plate was incubated at 37°C in a 5% CO2 incubator for 1 hour; • D. After incubation, the HRP secondary antibody was added (diluted 10,000-fold with 0.2% BSA), and the plate was incubated at 37°C in a 5% CO2 incubator for 1 hour; • E. After incubation, the wells were washed for 4 times with PBST, 250 µL/well, each washing was allowed to stand for 5 minutes, and the liquid in the wells was shaken off after completion of the washing; • F. 100 µL/well of a development solution was added, the plate was incubated at room temperature in the dark for 20 minutes, and 50 µL/well of a reaction termination solution was added. The plate was tapped gently to mix the solutions, and the absorbance at 450 nm was measured using the microplate reader. • 4. Data analysis • Inhibition rate of the compound against the virus = 100% - (SC - CC)/(VC - CC) × 100% • SC: OD450 value of the sample (cells + test compound + virus) • CC: OD450 value of the normal growing cell control (cells) • VC: OD450 value of the virus growth control (cells + virus)
The software Graphpad Prism 6 was used, and the calculation formula XY-analysis/Nonlinear regression (curve fit)/Dose response-Inhibition/log (inhibition) vs. response-Variable slope (four parameters) was adopted to fit the IC50 curve and calculate the IC50 value.

Q: Which IC50 does the source give for “4-(4-(((3-aminooxetan-3-yl)methyl)amino)-6-methylquinazolin-2-yl)-1-((deuteromethyl)imino)-2,3,4,5-tetrahydro-1H-1λ^4-benzo[f][1,4]thiazepine-1-oxide [Example 2-24]” here?
A: < 10 nM

Q: How did the IC50 turn out when `Cc1ccc2nc(N3CCS(=O)(=NC(N)=O)c4ccccc4C3)nc(NCC3(N)COC3)c2c1` (stereo not shown) [Example 2-16, 1-(4-(4-(((3-aminooxetan-3-yl)methyl)amino)-6-methylquinazolin-2-yl)-1-oxido-2,3,4,5-tetrahydro-1λ^4-benzo[f][1,4]thiazepin-1-ylidene)urea] was run?
A: > 10 nM

Same assay, conditions: human respiratory syncytial virus; RSV A2 virus strain, Hep-2 cells, ELISA OD450

Q: For `CCN=S1(=O)CCN(c2nc(NCC3(N)COC3)c3cc(C)ccc3n2)Cc2ccccc21` (stereo not shown) [Example 2-43, 4-(4-(((3-aminooxetan-3-yl)methyl)amino)-6-methylquinazolin-2-yl)-1-(ethylimino)-2,3,4,5-tetrahydro-1H-1λ^4-benzo[f][1,4]thiazepine-1-oxide], which IC50 is on record?
A: < 10 nM

Q: Which IC50 does the source give for `Cc1ccc2nc(N3CCS(=O)(=NCCC(C)(C)O)c4ccccc4C3)nc(N3CC[C@@H](N)C3)c2c1` (stereo partly shown) [Example 4-56] here?
A: < 10 nM

Q: `Cc1ccc2nc(N3CCS(=O)(=NC4CC4)c4ccccc4C3)nc(N[C@@H]3CNC[C@H]3O)c2c1` (stereo partly drawn) [Example 4-10, 1-(cyclopropylimino)-4-(4-(((3R,4R)-4-hydroxypyrrolidin-3-yl)amino)-6-methylquinazolin-2-yl)-2,3,4,5-tetrahydro-benzo[f][1,4]thiazepine-1-oxide] was tested. Which IC50 did it give?
A: < 10 nM

Q: For `Cc1ccc2nc(N3CCS(=O)(=NCCCO)c4ccccc4C3)nc(N3CC[C@H](N)C3)c2c1` (stereo partly shown) [Example 4-64], which IC50 is on record?
A: < 10 nM

Q: How did the IC50 turn out when `CN=S1(=O)CCN(c2nc(NCC3(N)COC3)c3cc(C)ccc3n2)Cc2ccccc21` (stereo not shown) [Example 2-14, 4-(4-(((3-aminooxetan-3-yl)methyl)amino)-6-methylquinazolin-2-yl)-1-(methylimino)-2,3,4,5-tetrahydro-1H-1λ^4-benzo[f][1,4]thiazepine-1-oxide] was run?
A: < 10 nM

Q: Which IC50 does the source give for `Cc1ccc2nc(N3CCS(=O)(=NC4CC4)c4ccccc4C3)nc(N[C@H]3C[C@@H](N)C3)c2c1` (stereo partly drawn) [Example 4-13, 4-(4-(((1R,3S)-3-aminocyclobutyl)amino)-6-methylquinazolin-2-yl)-1-(cyclopropylimino)-2,3,4,5-tetrahydro-benzo[f][1,4]thiazepine-1-oxide] here?
A: < 10 nM

Q: With `NC1(CNc2nc(N3CCS(=O)(=NC4CC4)c4ccccc4C3)nc3ccc(C(F)F)cc23)COC1` (stereo not shown) [Example 2-46, 4-(4-(((3-aminooxetan-3-yl)methyl)amino)-6-(difluoromethyl)quinazolin-2-yl)-1-(cyclopropylimino)-2,3,4,5-tetrahydro-1H-1λ^4-benzo[f][1,4]thiazepine-1-oxide] as the compound, how does the IC50 read?
A: < 10 nM

Q: With `Cc1ccc2nc(N3CCS(=O)(=NCCCC#N)c4ccccc4C3)nc(N3CC[C@@H](N)C3)c2c1` (stereo partly shown) [Example 4-47] as the compound, how does the IC50 read?
A: < 10 nM

Q: `COC(=O)C1(CN)CN(c2nc(N3CCS(=O)(=NC4CC4)c4ccccc4C3)nc3ccc(C)cc23)C1` (stereo not shown) [Example 4-57, methyl 3-(aminomethyl)-1-(2-(1-(cyclopropylimino)-1-oxido-1,2,3,5-tetrahydro-benzo[f][1,4]thiazepin-4-yl)-6-methylquinazolin-4-yl)azetidine-3-carboxylate] was tested. Which IC50 did it give?
A: < 10 nM

Q: How did the IC50 turn out when `CC(O)(CCN=S1(=O)CCN(c2nc(N3CC[C@H](N)C3)c3cc(C(F)F)ccc3n2)Cc2ccccc21)C(F)(F)F` (stereo partly drawn) [Example 4-63, 4-(4-((S)-3-aminopyrrolidin-1-yl)-6-(difluoromethyl)quinazolin-2-yl)-1-((4,4,4-trifluoro-3-hydroxy-3-methylbutyl)imino)-2,3,4,5-tetrahydro-benzo[f] [1,4]thiazepine-1-oxide] was run?
A: < 10 nM

Q: How did the IC50 turn out when `Cc1ccc2nc(N3CCS(=N)(=O)c4ccccc4C3)nc(NCC3(N)COC3)c2c1` (stereo not shown) [Example 2-23, 4-(4-(((3-aminooxetan-3-yl)methyl)amino)-6-methylquinazolin-2-yl)-1-imino-2,3,4,5-tetrahydro-1H-1λ^4-benzo[f][1,4]thiazepine-1-oxide] was run?
A: < 10 nM

Q: `Cc1ccc2nc(N3CCS(=O)(=NCC4CCCO4)c4ccccc4C3)nc(N3CC[C@H](N)C3)c2c1` (stereo partly shown) [Example 4-70] was tested. Which IC50 did it give?
A: < 10 nM

Q: Which IC50 does the source give for `NC1(CNc2nc(N3CCS(=O)(=NC4CCC4)c4ccccc4C3)nc3ccc(C(F)F)cc23)COC1` (stereo not shown) [Example 4-16, 4-(4-(((3-aminooxetan-3-yl)methyl)amino)-6-(difluoromethyl)quinazolin-2-yl)-1-(cyclobutylimino)-2,3,4,5-tetrahydro-benzo[f][1,4]thiazepine-1-oxide] here?
A: < 10 nM

Q: For `Cc1ccc2nc(N3CCS(=O)(=NC4CC4)c4ccccc4C3)nc(N3CC(O)(CN)C3)c2c1` (stereo not shown) [Example 4-2, 4-(4-(3-(aminomethyl)-3-hydroxyazetidin-1-yl)-6-methylquinazolin-2-yl)-1-(cyclopropylimino)-2,3,4,5-tetrahydro-benzo[f][1,4]thiazepine-1-oxide], which IC50 is on record?
A: < 10 nM

Q: `Cc1ccc2nc(N3CCS(=O)(=NC4CC4)c4ccccc4C3)nc(N3CC(N)(CO)C3)c2c1` (stereo not shown) [Example 4-32, 4-(4-(3-amino-3-(hydroxymethyl)azetidin-1-yl)-6-methylquinazolin-2-yl)-1-(cyclopropylimino)-2,3,4,5-tetrahydro-benzo[f][1,4]thiazepine-1-oxide] was tested. Which IC50 did it give?
A: < 10 nM

Q: For `COCCCN=S1(=O)CCN(c2nc(N3CC[C@H](N)C3)c3cc(C)ccc3n2)Cc2ccccc21` (stereo partly shown) [Example 4-71], which IC50 is on record?
A: < 10 nM

Q: How did the IC50 turn out when `N[C@H]1CCN(c2nc(N3CCS(=O)(=NCCCO)c4ccccc4C3)nc3ccc(C(F)F)cc23)C1` (stereo partly shown) [Example 4-66] was run?
A: < 10 nM

Q: For `CNC(=O)N=S1(=O)CCN(c2nc(NCC3(N)COC3)c3cc(C)ccc3n2)Cc2ccccc21` (stereo not shown) [Example 2-37, 1-(4-(4-(((3-aminooxetan-3-yl)methyl)amino)-6-methylquinazolin-2-yl)-1-oxido-2,3,4,5-tetrahydro-1λ^4-benzo[f][1,4]thiazepin-1-ylidene)-3-methylurea], which IC50 is on record?
A: < 10 nM

Q: With `Cc1ccc2nc(N3CCS(=O)(=NC(=O)C4(F)CC4)c4ccccc4C3)nc(NCC3(N)COC3)c2c1` (stereo not shown) [Example 2-32, N-(4-(4-(((3-aminooxetan-3-yl)methyl)amino)-6-methylquinazolin-2-yl)-1-oxido-2,3,4,5-tetrahydro-1λ^4-benzo[f][1,4]thiazepin-1-ylidene)-1-fluorocyclopropane-1-carboxamide] as the compound, how does the IC50 read?
A: < 10 nM

Q: With `CC(=O)N=S1(=O)CCN(c2nc(NCC3(N)COC3)c3cc(C)ccc3n2)Cc2ccccc21` (stereo not shown) [Example 2-31, N-(4-(4-(((3-aminooxetan-3-yl)methyl)amino)-6-methylquinazolin-2-yl)-1-oxido-2,3,4,5-tetrahydro-1λ^4-benzo[f][1,4]thiazepin-1-ylidene)acetamide] as the compound, how does the IC50 read?
A: < 10 nM

Q: How did the IC50 turn out when `Cc1ccc2nc(N3CCS(=O)(=NCCS(C)(=O)=O)c4ccccc4C3)nc(N3CC[C@H](N)C3)c2c1` (stereo partly shown) [Example 4-65] was run?
A: < 10 nM

Q: Which IC50 does the source give for `Cc1ccc2nc(N3CCS(=O)(=Nc4cnn(C)c4)c4ccccc4C3)nc(NCC3(N)COC3)c2c1` (stereo not shown) [Example 2-38, 4-(4-(((3-aminooxetan-3-yl)methyl)amino)-6-methylquinazolin-2-yl)-1-((1-methyl-1H-pyrazol-4-yl)imino)-2,3,4,5-tetrahydro-1H-1λ^4-benzo[f][1,4]thiazepine-1-oxide] here?
A: > 10 nM

Q: With `COCCCN=S1(=O)CCN(c2nc(N3CC[C@@H](N)C3)c3cc(C)ccc3n2)Cc2ccccc21` (stereo partly shown) [Example 4-73] as the compound, how does the IC50 read?
A: < 10 nM

Q: With `N[C@@H]1CCN(c2nc(N3CCS(=O)(=NC4CC4)c4ccccc4C3)nc3ccc(C(F)F)cc23)C1` (stereo partly shown) [Example 4-28] as the compound, how does the IC50 read?
A: < 10 nM

Q: `Cc1ccc2nc(N3CCS(=O)(=NC4CC4)c4ccccc4C3)nc(NCC3(N)COC3)c2c1` (stereo not shown) [Example 2-26, 4-(4-(((3-aminooxetan-3-yl)methyl)amino)-6-methylquinazolin-2-yl)-1-(cyclopropylimino)-2,3,4,5-tetrahydro-1H-1λ^4-benzo[f][1,4]thiazepine-1-oxide] was tested. Which IC50 did it give?
A: < 10 nM

Same assay, conditions: ratio of IC50 values against RSV A2 virus strain; control compound AK0529

Q: For `NC1(CNc2nc(N3CCS(=O)(=NC4CC4)c4ccccc4C3)nc3ccc(C(F)F)cc23)COC1` (stereo not shown) [Example 2-46, 4-(4-(((3-aminooxetan-3-yl)methyl)amino)-6-(difluoromethyl)quinazolin-2-yl)-1-(cyclopropylimino)-2,3,4,5-tetrahydro-1H-1λ^4-benzo[f][1,4]thiazepine-1-oxide], which “AK0529 IC50 / IC50 of the compounds of the present invention” value (“AK0529 IC50 / IC50” below) is on record?
A: ratio ≥20

Q: How did the “AK0529 IC50 / IC50” value turn out when `COC(=O)C1(CN)CN(c2nc(N3CCS(=O)(=NC4CC4)c4ccccc4C3)nc3ccc(C)cc23)C1` (stereo not shown) [Example 4-57, methyl 3-(aminomethyl)-1-(2-(1-(cyclopropylimino)-1-oxido-1,2,3,5-tetrahydro-benzo[f][1,4]thiazepin-4-yl)-6-methylquinazolin-4-yl)azetidine-3-carboxylate] was run?
A: ratio ≥20

Q: With “4-(4-(((3-aminooxetan-3-yl)methyl)amino)-6-methylquinazolin-2-yl)-1-((deuteromethyl)imino)-2,3,4,5-tetrahydro-1H-1λ^4-benzo[f][1,4]thiazepine-1-oxide [Example 2-24]” as the compound, how does the “AK0529 IC50 / IC50” value read?
A: ratio ≥20

Q: For `NC1(CNc2nc(N3CCS(=O)(=NC4CCC4)c4ccccc4C3)nc3ccc(C(F)F)cc23)COC1` (stereo not shown) [Example 4-16, 4-(4-(((3-aminooxetan-3-yl)methyl)amino)-6-(difluoromethyl)quinazolin-2-yl)-1-(cyclobutylimino)-2,3,4,5-tetrahydro-benzo[f][1,4]thiazepine-1-oxide], which “AK0529 IC50 / IC50” value is on record?
A: ratio ≥20
